According to ChEMBL document CHEMBL1148526, “Facile purification of honokiol and its antiviral and cytotoxic properties” (J Med Chem, 2006):

What was measured:
Type in all cases: functional
[1] = system: CCRF-CEM; experiment: Cytotoxicity against human CEM cells
[2] = system: PBMC; experiment: Selectivity index of antiviral vs cytoxic activity in PBM cells (CC50/EC50)
[3] = system: PBMC; experiment: Cytotoxicity against human PBM cells
[4] = system: Vero; experiment: Cytotoxicity against Vero cells; conditions: Chlorocebus sabaeus

For C=CCc1ccc(O)c(-c2ccc(O)c(CC=C)c2)c1 [HONOKIOL], the CC50 [1] was 10.9 µM, the “Ratio CC50/EC50” value [2] was 5 and the CC50 [3] was 16.1 µM. It also gave a CC50 [4] of 22.5 µM.

Work on C=CCc1ccc(O)c(-c2cc(CC=C)ccc2O)c1 [MAGNOLOL] yielded a CC50 [1] of 99.5 µM, a CC50 [3] of 38.6 µM and a CC50 [4] of 50.6 µM.
